Some test systems named below: A498; COLO 205; IGROV-1; LOX IMVI; MOLT-4; OVCAR-5; OVCAR-8; RPMI-8226; SF-295; SNB-19; SNB-75; SW-620; UACC-257; SK-MEL-28; TK-10.
What all share (assay): NCI anticancer screen, dose series, 48 h

Each structure is given as a SMILES string.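 Each compound was tested at five concentrations against cells in 96-well plates for 48 hours. Here, GI50 denotes the concentration required for 50% inhibition of growth.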 Calls of active or inactive are those of the source. Cut-off read from the data, not from the text of the source: active = GI50 up to about 1.1 µM and inactive = higher.

`CCOC(=O)N1c2c(ccn2C)-c2ccn(C)c2N1C(=O)OCC`: the GI50 with A498 is 44.1 µM (inactive); with COLO 205, 22.7 µM (inactive); in the experiment on IGROV-1, 24.9 µM (inactive); with LOX IMVI, 12.9 µM (inactive); in the experiment on MOLT-4 it was 6.18 µM (inactive); with OVCAR-5, 17.4 µM (inactive). For the same compound, the GI50 in the experiment with OVCAR-8 was 14.1 µM (inactive); in the experiment with RPMI-8226 it was 20.9 µM (inactive); with SF-295, 15.3 µM (inactive); in the experiment with SNB-19, > 10 µM (inactive); in the experiment with SNB-75, 15.5 µM (inactive); in the experiment with SW-620, 15.2 µM (inactive). For the same compound, in the experiment on UACC-257, the GI50 is > 10 µM (inactive).
With `COC(=O)[C@@]12CC(C(C)C)[C@H]3CC(C(=O)C=C1OC)[C@H]32` (stereo not given in full), the GI50 in the experiment with A498, in the experiment with COLO 205, in the experiment with IGROV-1, with MOLT-4, in the experiment on OVCAR-5 and in the experiment with OVCAR-8 was > 100 µM (inactive) throughout. Besides, the GI50 in the experiment on RPMI-8226, with SF-295, in the experiment on SK-MEL-28, in the experiment on SNB-19, in the experiment on SNB-75 and in the experiment on SW-620 was > 100 µM (inactive) each time. Besides, the GI50 with TK-10 and in the experiment with UACC-257 was > 100 µM (inactive) in each case.
`O=c1c2ccccc2oc2ccccc12.Oc1cccc2cccnc12`: the GI50 in the experiment on A498 is 16.8 µM (inactive); in the experiment with COLO 205, 3.05 µM (inactive); with IGROV-1, 3.73 µM (inactive); with LOX IMVI, 1.49 µM (inactive); in the experiment with MOLT-4, 0.607 µM (active); with OVCAR-8 it was 2.36 µM (inactive). Further, the GI50 in the experiment on RPMI-8226 is 5.41 µM (inactive); with SF-295 it was 2.23 µM (inactive); in the experiment on SNB-19, 3.36 µM (inactive); in the experiment with SNB-75, 2.29 µM (inactive); in the experiment on SW-620 it was 1.77 µM (inactive); with UACC-257 it was 2.73 µM (inactive).
With `CCN1C(=O)C/C(=C\C(C)=O)Nc2ccccc21`, the GI50 with COLO 205, in the experiment on IGROV-1, with LOX IMVI, in the experiment with MOLT-4, with OVCAR-5 and in the experiment with OVCAR-8 was > 100 µM (inactive) in each case. Also, the GI50 in the experiment on SF-295 was > 100 µM (inactive); in the experiment on SK-MEL-28, > 100 µM (inactive); in the experiment with SNB-19, > 100 µM (inactive); with SNB-75 it was 21.5 µM (inactive); with SW-620 it was > 100 µM (inactive); with TK-10 it was > 100 µM (inactive).
As to `Oc1ccccc1/C=N/c1ccccc1/N=C/c1ccccc1O`, the GI50 is > 100 µM (inactive) in the experiment on COLO 205; > 100 µM (inactive) with IGROV-1; > 100 µM (inactive) in the experiment with LOX IMVI; 16.1 µM (inactive) in the experiment on MOLT-4; > 100 µM (inactive) in the experiment with OVCAR-8; 62.7 µM (inactive) in the experiment on RPMI-8226. For the same compound, the GI50 in the experiment with SF-295 is 88.9 µM (inactive); with SK-MEL-28, > 100 µM (inactive); in the experiment on SNB-19, 34.4 µM (inactive); in the experiment on SW-620 it was > 100 µM (inactive); in the experiment on TK-10, > 100 µM (inactive); in the experiment on UACC-257 it was 38.7 µM (inactive).
Regarding `COc1cc2ccc(CC(=O)O)cc2cc1OC`, the GI50 in the experiment with A498, in the experiment with COLO 205, in the experiment on IGROV-1, with MOLT-4, in the experiment with OVCAR-8 and in the experiment on RPMI-8226 was > 100 µM (inactive) each time. Besides, the GI50 in the experiment on SK-MEL-28, in the experiment on SNB-19, in the experiment on SNB-75, with SW-620, with TK-10 and in the experiment on UACC-257 was > 100 µM (inactive) throughout.

The record behind these values is ChEMBL document CHEMBL1201862, “PubChem BioAssay data set” (2004).
